The numbers were not newly measured in patent US20080153785A1, “Pharmaceutical Compositions Containing Biophosphonate for Improving Oral Absorption” (CHONG KUN DANG PHARMACEUTICAL CORP., priority 2005, published 2008), which cites them from elsewhere.

The conditions of the series: long-term treatment, normally taken.

Regarding `NCCCC(O)(P(=O)(O)O)P(=O)(O)O` [alendronate, 4-Amino-1-hydroxybutylidene-1,1-biphosphonate], the “incidence of heartburn or epigastric pain” value was “about 36 % of patients”.
